Test results reported in PubChem BioAssay AID2060896 (Molecular Pharmacology Branch, DTP, NCI, 2025).
Values belong to the molecule of their own block, whether it stands above or below them.

Test system: 941728-121-R-J1-PDC complex spheroid viability
Test: Anticancer human tumor 941728-121-R-J1-PDC patient-derived lung adenocarcinoma cell line growth inhibition [RAS]
Conditions: for viability, T/C: stronger effect = lower value
Summary of the method: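 Tumour cells grown as complex spheroids with HUVEC endothelial cells and mesenchymal stem cells, treated with RAS pathway inhibitor combinations. Each agent spans half-log steps from near clinical Cmax, or 10 microM where Cmax is unknown.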
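Further: spheroids exposed to compounds for 7 days before readout.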
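Wherever viability, T/C is given: 100% = DMSO vehicle control viability.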

IC50 (curve of first compound, second compound 0.00316 µM): < 3.16 nM
IC50 (curve of first compound, second compound 0.01 µM): < 3.16 nM
IC50 (curve of first compound, second compound 0.0316 µM): < 3.16 nM
IC50 (curve of first compound, second compound 0.1 µM): < 3.16 nM
IC50 (curve of first compound, second compound 0.316 µM): < 3.16 nM
IC50 (curve of first compound, second compound 1 µM): < 3.16 nM
SMILES: CCN1CCN(Cc2ccc(Nc3ncc(F)c(-c4cc(F)c5nc(C)n(C(C)C)c5c4)n3)nc2)CC1 + C=CC(=O)N1CCN(c2nc(OCC3CCCN3C)nc3c(F)c(-c4nc(N)cc(C)c4C(F)(F)F)c(Cl)cc23)C(C)C1
viability, T/C (second compound 0.00316 µM, first compound 0.00316 µM): 21.3%
viability, T/C (second compound 0.00316 µM, first compound 0.01 µM): 18.4%
viability, T/C (second compound 0.00316 µM, first compound 0.0316 µM): 18.1%
viability, T/C (second compound 0.00316 µM, first compound 0.1 µM): 20.8%
viability, T/C (second compound 0.00316 µM, first compound 0.316 µM): 15.6%
viability, T/C (second compound 0.00316 µM, first compound 1 µM): 15.6%
viability, T/C (second compound 0.01 µM, first compound 0.00316 µM): 20.1%
viability, T/C (second compound 0.01 µM, first compound 0.01 µM): 18.5%
viability, T/C (second compound 0.01 µM, first compound 0.0316 µM): 17.5%
viability, T/C (second compound 0.01 µM, first compound 0.1 µM): 15.9%
viability, T/C (second compound 0.01 µM, first compound 0.316 µM): 13.1%
viability, T/C (second compound 0.01 µM, first compound 1 µM): 12.6%
viability, T/C (second compound 0.0316 µM, first compound 0.00316 µM): 18.4%
viability, T/C (second compound 0.0316 µM, first compound 0.01 µM): 20.1%
viability, T/C (second compound 0.0316 µM, first compound 0.0316 µM): 14.6%
viability, T/C (second compound 0.0316 µM, first compound 0.1 µM): 13.5%
viability, T/C (second compound 0.0316 µM, first compound 0.316 µM): 13.8%
viability, T/C (second compound 0.0316 µM, first compound 1 µM): 15.1%
viability, T/C (second compound 0.1 µM, first compound 0.00316 µM): 18.8%
viability, T/C (second compound 0.1 µM, first compound 0.01 µM): 19%
viability, T/C (second compound 0.1 µM, first compound 0.0316 µM): 18.6%
viability, T/C (second compound 0.1 µM, first compound 0.1 µM): 15.8%
viability, T/C (second compound 0.1 µM, first compound 0.316 µM): 14.4%
viability, T/C (second compound 0.1 µM, first compound 1 µM): 13.5%
viability, T/C (second compound 0.316 µM, first compound 0.00316 µM): 18%
viability, T/C (second compound 0.316 µM, first compound 0.01 µM): 17.4%
viability, T/C (second compound 0.316 µM, first compound 0.0316 µM): 18.5%
viability, T/C (second compound 0.316 µM, first compound 0.1 µM): 17.3%
viability, T/C (second compound 0.316 µM, first compound 0.316 µM): 13.2%
viability, T/C (second compound 0.316 µM, first compound 1 µM): 13.9%
viability, T/C (second compound 1 µM, first compound 0.00316 µM): 21.6%
viability, T/C (second compound 1 µM, first compound 0.01 µM): 18.8%
viability, T/C (second compound 1 µM, first compound 0.0316 µM): 20.6%
viability, T/C (second compound 1 µM, first compound 0.1 µM): 16.5%
viability, T/C (second compound 1 µM, first compound 0.316 µM): 14.7%
viability, T/C (second compound 1 µM, first compound 1 µM): 13.2%

IC50 (curve of compound): 11.4 nM [middle of 4 runs]
SMILES: CC(C)n1nc(-c2ccc3oc(N)nc3c2)c2c(N)ncnc21
viability, T/C (compound 0.000316 µM): 102% [middle of 4 runs]
viability, T/C (compound 0.001 µM): 86.9% [middle of 4 runs]
viability, T/C (compound 0.00316 µM): 60.5% [middle of 4 runs]
viability, T/C (compound 0.01 µM): 55.1% [middle of 4 runs]
viability, T/C (compound 0.0316 µM): 40.9% [middle of 4 runs]
viability, T/C (compound 0.1 µM): 34.5% [middle of 4 runs]
